Measured values published in ChEMBL document CHEMBL1128704, “(R)-11-hydroxy- and (R)-11-hydroxy-10-methylaporphine: synthesis, pharmacology, and modeling of D2A and 5-HT1A receptor interactions” (J Med Chem, 1995).

Columns and labels:
[1] = molecular target: T1, 5-hydroxytryptamine receptor 1A (Rattus norvegicus, UniProt P19327); experiment: (§1) Ability to inhibit 5-HT sensitive,forskolin-stimulated adenylyl cyclase(FSC) activity in rat hippocampal membranes mediated through 5-hydroxytryptamine 1A receptor; assay type: functional, cell membranes
T1 sequence (P19327 whole entry): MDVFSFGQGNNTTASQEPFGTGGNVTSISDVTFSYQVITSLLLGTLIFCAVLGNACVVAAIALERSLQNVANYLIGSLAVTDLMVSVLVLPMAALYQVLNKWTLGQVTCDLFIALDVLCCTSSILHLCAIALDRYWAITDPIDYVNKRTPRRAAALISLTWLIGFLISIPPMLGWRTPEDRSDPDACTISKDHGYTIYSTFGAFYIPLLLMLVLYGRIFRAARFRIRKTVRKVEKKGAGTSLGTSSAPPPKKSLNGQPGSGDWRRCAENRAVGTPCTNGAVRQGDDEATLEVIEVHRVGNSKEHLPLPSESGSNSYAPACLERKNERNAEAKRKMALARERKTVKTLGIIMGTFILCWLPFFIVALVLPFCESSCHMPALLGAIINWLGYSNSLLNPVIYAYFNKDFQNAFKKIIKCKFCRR

[2] = molecular target: T2, 5-hydroxytryptamine receptor 1A (Rattus norvegicus) (UniProt P19327); experiment: as §1; assay type: functional, cell membranes; conditions: concentration not given here
T2 sequence (whole entry): T1 sequence (P19327 whole entry)

[3] = molecular target: T1, 5-hydroxytryptamine receptor 1A; experiment: Ability to displace [3H]8-OH-DPAT binding to rat hippocampal 5-hydroxytryptamine 1A receptor; assay type: tissue-based, Hippocampus
D(2) dopamine receptor = D(2) dopamine receptor (Homo sapiens, UniProt P14416); experiment: Ability to displace [3H]raclopride binding to cloned human Dopamine receptor D2A
Sequence of D(2) dopamine receptor (P14416 whole entry): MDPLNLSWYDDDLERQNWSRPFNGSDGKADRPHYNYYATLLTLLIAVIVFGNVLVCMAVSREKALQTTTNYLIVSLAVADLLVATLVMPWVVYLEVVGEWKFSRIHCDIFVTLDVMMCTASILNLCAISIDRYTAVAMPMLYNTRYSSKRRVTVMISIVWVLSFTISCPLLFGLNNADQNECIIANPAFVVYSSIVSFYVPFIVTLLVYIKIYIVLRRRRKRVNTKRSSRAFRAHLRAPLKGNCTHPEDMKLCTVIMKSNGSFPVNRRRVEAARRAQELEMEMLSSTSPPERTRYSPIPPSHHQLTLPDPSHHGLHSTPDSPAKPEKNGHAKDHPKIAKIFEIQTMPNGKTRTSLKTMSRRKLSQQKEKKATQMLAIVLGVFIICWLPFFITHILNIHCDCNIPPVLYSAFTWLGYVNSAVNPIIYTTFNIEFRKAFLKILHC

D(1A) dopamine receptor = D(1A) dopamine receptor (Rattus norvegicus, UniProt P18901); experiment: Ability to displace [3H]SCH-23390 binding to rat striatal Dopamine receptor D1
Sequence of D(1A) dopamine receptor (P18901 whole entry): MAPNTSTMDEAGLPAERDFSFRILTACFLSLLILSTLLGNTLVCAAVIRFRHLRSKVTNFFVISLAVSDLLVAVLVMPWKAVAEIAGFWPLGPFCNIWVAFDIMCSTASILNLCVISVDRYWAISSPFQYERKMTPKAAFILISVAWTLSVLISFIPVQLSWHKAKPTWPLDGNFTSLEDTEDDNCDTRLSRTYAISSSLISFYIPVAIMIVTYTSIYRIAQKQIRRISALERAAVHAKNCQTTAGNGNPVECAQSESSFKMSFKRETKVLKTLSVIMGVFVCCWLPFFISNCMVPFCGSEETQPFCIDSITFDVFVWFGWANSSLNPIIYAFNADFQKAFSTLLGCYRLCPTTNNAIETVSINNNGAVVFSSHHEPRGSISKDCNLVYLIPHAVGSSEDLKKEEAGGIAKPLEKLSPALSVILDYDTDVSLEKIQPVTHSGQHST

| SMILES | EC50 [1] [nM] | inhibition [2] [%] | Ki [3] [nM] | Ki (D(2) dopamine receptor) [nM] | Ki (D(1A) dopamine receptor) [nM] |
| --- | --- | --- | --- | --- | --- |
| Cc1ccc2c(c1O)-c1cccc3c1[C@@H](C2)N(C)CC3 | 55 | 102 | 0.45 | 1070 | 382 |
| CN1CCc2cccc3c2[C@H]1Cc1cccc(O)c1-3 | 5200 | 60 | 9.6 | 58.5 | 20.4 |
